# Literature values as cited in patent publication US20040214861A1, “Compositions of a cyclooxygenase-2 selective inhibitors and 5-HT1B1D antagonists for the treatment and prevention of migraine” (Pharmacia Corporation, priority 2003, published 2004).
# Conditions: at one and two hours after administration; compared with sumatriptan
smiles,measurement,value
CN1CCC[C@@H]1Cc1c[nH]c2ccc(CCS(=O)(=O)c3ccccc3)cc12 [eletriptan],effectiveness after administration,greater effectiveness at one and two hours after administration than sumatriptan
